Experimental data reported in patent US10131652B2, “Pyrimidinyloxy benzene derivatives as herbicides” (E. I. DU PONT DE NEMOURS AND COMPANY, priority 2014, dated 2018).
Where two headings read alike, the source gives them in different places.

What was measured:
Type in all cases: in vivo
[1] = test system: ragweed (common ragweed, Ambrosia elatior); test: Test B pre-/postemergence plant response
Procedure, shortened: (§1)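 Visual injury rating, 0 (no effect) to 100 (complete control), vs untreated controls after ~10 d greenhouse. Pre: directed soil spray after planting in loam/sand. Post: plants 2–10 cm, 1–2 leaf stage. Compound in non-phytotoxic solvent plus surfactant.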

kochia (Kochia scoparia) = test: Test B pre-/postemergence plant response
Procedure, shortened: as §1

[2] = test system: Italian ryegrass (Lolium multiflorum); test: Test B pre-/postemergence plant response
Procedure, shortened: as §1

[3] = test system: giant foxtail (Setaria faberii); test: Test B pre-/postemergence plant response; conditions: for pest or weed control at 500 g/ha: 500 g ai/ha
Procedure, shortened: as §1

corn (Zea mays) = test: Test B pre-/postemergence plant response; conditions: Zea mays, post-emergence, 240 h
Procedure, shortened: as §1

[4] = test system: barnyardgrass (Echinochloa crus-galli); test: Test B pre-/postemergence plant response; conditions: for pest or weed control at 500 g/ha: 500 g ai/ha
Procedure, shortened: as §1

[5] = test system: pigweed (Amaranthus retroflexus); test: Test B pre-/postemergence plant response; conditions: for pest or weed control at 500 g/ha: 500 g ai/ha
Procedure, shortened: as §1

[6] = test system: wheat (Triticum aestivum); test: Test B pre-/postemergence plant response; conditions: Triticum aestivum, post-emergence, 240 h, read-out: Plant response rating, Wheat
Procedure, shortened: as §1

[7] = test system: ducksalad (Heteranthera limosa); test: Test C flooded paddy test plant response; conditions: Heteranthera limosa; Flood, 250 g ai/ha; scale of 0 to 100 where 0 is no effect and 100 is complete control; 13 to 15 days; read-out: Ducksalad plant response rating
Procedure, shortened: (§2)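 Scale 0 (no effect) to 100 (complete control), assigned visually versus controls after 13–15 d greenhouse. Application: directly to paddy water, 3 cm flood depth kept constant, 2-leaf stage.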

[8] = test system: small-flower umbrella sedge (Cyperus difformis); test: Test C flooded paddy test plant response; conditions: Cyperus difformis; Flood, 250 g ai/ha; scale of 0 to 100 where 0 is no effect and 100 is complete control; 13 to 15 days; read-out: Sedge, Umbrella plant response rating
Procedure, shortened: as §2

[9] = test system: barnyardgrass (Echinochloa crus-galli); test: Test C flooded paddy test plant response; conditions: Echinochloa crus-galli; Flood, 250 g ai/ha; scale of 0 to 100 where 0 is no effect and 100 is complete control; 13 to 15 days; read-out: Barnyardgrass plant response rating
Procedure, shortened: as §2

rice (Oryza sativa) = test: Test C flooded paddy test plant response; conditions: Oryza sativa; Flood, 250 g ai/ha; scale of 0 to 100 where 0 is no effect and 100 is complete control; 13 to 15 days; read-out: Rice plant response rating
Procedure, shortened: as §2

[10] = test system: galium (catchweed bedstraw, Galium aparine); test: Test B postemergence plant response
Procedure, shortened: (§3)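 Plants grown in pots of loam soil–sand blend were sprayed postemergence with formulated test chemicals at 2 to 10 cm height, one- to two-leaf stage. After about 10 days in a greenhouse, injury was visually rated against untreated controls on a 0 to 100 scale (0 no effect, 100 complete control).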

[11] = test system: blackgrass (Alopecurus myosuroides); test: Test B postemergence plant response
Procedure, shortened: as §3

[12] = 125 g ai/ha, postemergence, 0 to 100 scale, 0 no effect, 100 complete control
[13] = Postemergence, 500 g ai/ha, 0 to 100 scale (0 no effect, 100 complete control)
[14] = Preemergence, 125 g ai/ha, 0 to 100 scale (0 no effect, 100 complete control)
[15] = Preemergence, 500 g ai/ha, 0 to 100 scale where 0 is no effect and 100 is complete control

N#Cc1cccc(Oc2ncc(Cl)cn2)c1-c1cc(C(F)(F)F)ccn1 [Compound 158, 5-chloro-2-[3-cyano-2-[4-(trifluoromethyl)-2-pyridinyl]phenoxy]pyrimidine]
Plant response rating, Ragweed [1, 12]: 0
Plant response rating, Ragweed [1, 13]: 30
Ragweed plant response rating [1, 14]: 0
Plant response rating, Ragweed [1, 15]: 20
Plant response rating, Kochia (kochia (Kochia scoparia); [12]): 70
Plant response rating, Kochia (kochia (Kochia scoparia); [13]): 90
Kochia plant response rating (kochia (Kochia scoparia); [14]): 100
Plant response rating, Kochia (kochia (Kochia scoparia); [15]): 100
Plant response rating, Ryegrass, Italian [2, 12]: 0
Plant response rating, Ryegrass, Italian [2, 13]: 70
Ryegrass, Italian plant response rating [2, 14]: 0
Plant response rating, Ryegrass, Italian [2, 15]: 20
Foxtail, Giant plant response rating [3, 14]: 90
pest or weed control at 125 g/ha ([3]; Setaria faberi, post-emergence, 240 h, 125 g ai/ha, postemergence, 0 to 100 scale, 0 no effect, 100 complete control, read-out: Plant response rating, Foxtail, Giant): 50%
pest or weed control at 500 g/ha ([3]; Setaria faberi, post-emergence, 240 h, Postemergence, 0 to 100 scale (0 no effect, 100 complete control), read-out: Plant response rating, Foxtail, Giant): 100%
pest or weed control at 500 g/ha ([3]; Setaria faberi, pre-emergence, 240 h, Preemergence, 0 to 100 scale where 0 is no effect and 100 is complete control, read-out: Plant response rating, Foxtail, Giant): 100%
Corn plant response rating (crop injury, 0 = no effect, 100 = complete kill) at 125 g/ha (corn (Zea mays); [12]): 30%
Corn plant response rating (crop injury, 0 = no effect, 100 = complete kill) at 500 g/ha (corn (Zea mays); [13]): 90%
pest or weed control at 125 g/ha ([4]; Echinochloa crus-galli, post-emergence, 240 h, 125 g ai/ha, postemergence, 0 to 100 scale, 0 no effect, 100 complete control, read-out: Plant response rating, Barnyardgrass): 60%
pest or weed control at 500 g/ha ([4]; Echinochloa crus-galli, post-emergence, 240 h, Postemergence, 0 to 100 scale (0 no effect, 100 complete control), read-out: Plant response rating, Barnyardgrass): 100%
pest or weed control at 500 g/ha ([4]; Echinochloa crus-galli, pre-emergence, 240 h, Preemergence, 0 to 100 scale where 0 is no effect and 100 is complete control, read-out: Plant response rating, Barnyardgrass): 100%
Barnyardgrass plant response rating [4, 14]: 90
pest or weed control at 125 g/ha ([5]; Amaranthus retroflexus, post-emergence, 240 h, 125 g ai/ha, postemergence, 0 to 100 scale, 0 no effect, 100 complete control, read-out: Plant response rating, Pigweed): 80%
pest or weed control at 500 g/ha ([5]; Amaranthus retroflexus, post-emergence, 240 h, Postemergence, 0 to 100 scale (0 no effect, 100 complete control), read-out: Plant response rating, Pigweed): 100%
pest or weed control at 500 g/ha ([5]; Amaranthus retroflexus, pre-emergence, 240 h, Preemergence, 0 to 100 scale where 0 is no effect and 100 is complete control, read-out: Plant response rating, Pigweed): 100%
Pigweed plant response rating [5, 14]: 90
plant injury at 125 g/ha [6, 12]: 20%
plant injury at 500 g/ha [6, 13]: 70%
pest or weed control at 250 g/ha [7]: 50%
pest or weed control at 250 g/ha [8]: 0%
pest or weed control at 250 g/ha [9]: 0%
plant injury at 250 g/ha (rice (Oryza sativa)): 0%
Plant response rating, Galium [10, 12]: 30
Plant response rating, Galium [10, 13]: 100
Plant response rating, Blackgrass [11, 12]: 30
Plant response rating, Blackgrass [11, 13]: 90
